Assay results taken from patent publication US20250115669A1, “FGFR1/KLB Targeting Agonistic Antigen-Binding Proteins and Conjugates Thereof with GLP-1R Agonistic Peptides” (SANOFI, priority 2020, published 2025).
Where two headings read alike, the source gives them in different places. Bridge positions count the residues as written; N and C are the ends. Ends that are not written are not given here. Peptide text beside a SMILES is read from it.

Key:
Format in all cases: cell-based
human GIP receptor = biological target: T1, human GIP receptor (Homo sapiens, UniProt P48546); experiment: HTRF cAMP assay in HEK-293 cells expressing human GIP receptor
T1 construct: expressed in transfected cells; host or cells: PSC-HEK-293
T1 sequence (P48546 22-466): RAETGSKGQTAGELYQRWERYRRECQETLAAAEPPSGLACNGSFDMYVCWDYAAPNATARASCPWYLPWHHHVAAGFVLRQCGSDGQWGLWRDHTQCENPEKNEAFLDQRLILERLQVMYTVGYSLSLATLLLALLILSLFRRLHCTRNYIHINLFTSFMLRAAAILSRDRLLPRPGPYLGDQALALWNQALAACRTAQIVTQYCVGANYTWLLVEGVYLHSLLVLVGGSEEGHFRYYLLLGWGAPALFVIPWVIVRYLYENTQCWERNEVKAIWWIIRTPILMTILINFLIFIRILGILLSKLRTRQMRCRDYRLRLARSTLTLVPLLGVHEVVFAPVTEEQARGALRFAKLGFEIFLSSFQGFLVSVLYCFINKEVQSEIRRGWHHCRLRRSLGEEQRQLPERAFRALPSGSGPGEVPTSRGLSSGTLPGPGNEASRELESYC
Procedure: (§1) Each vial contained 1.8 ml cells. The vials were slowly frozen to −80° C. in isopropanol, and then transferred in liquid nitrogen for storage.
(§2) Cells were resuspended in assay buffer (cell buffer plus 2 mM IBMX) and adjusted to a cell density of 1 million cells/ml.
(§3) For measurement of cAMP generation, 5 μl cells (final 5000 cells/well) and 5 μl of test compound were added to a 384-well plate, followed by incubation for 30 min at room temperature.
(§4) The cAMP generated was determined using a kit from Cisbio Corp. based on HTRF (Homogenous Time Resolved Fluorescence). The cAMP assay was performed according to manufacturer's instructions (Cisbio).

[1] = biological target: T2, human glucagon (GCG) receptor (Homo sapiens, UniProt P47871); experiment: HTRF cAMP assay in HEK-293 cells expressing human glucagon receptor
T2 construct: expressed in transfected cells; host or cells: PSC-HEK-293
T2 sequence (P47871 26-477): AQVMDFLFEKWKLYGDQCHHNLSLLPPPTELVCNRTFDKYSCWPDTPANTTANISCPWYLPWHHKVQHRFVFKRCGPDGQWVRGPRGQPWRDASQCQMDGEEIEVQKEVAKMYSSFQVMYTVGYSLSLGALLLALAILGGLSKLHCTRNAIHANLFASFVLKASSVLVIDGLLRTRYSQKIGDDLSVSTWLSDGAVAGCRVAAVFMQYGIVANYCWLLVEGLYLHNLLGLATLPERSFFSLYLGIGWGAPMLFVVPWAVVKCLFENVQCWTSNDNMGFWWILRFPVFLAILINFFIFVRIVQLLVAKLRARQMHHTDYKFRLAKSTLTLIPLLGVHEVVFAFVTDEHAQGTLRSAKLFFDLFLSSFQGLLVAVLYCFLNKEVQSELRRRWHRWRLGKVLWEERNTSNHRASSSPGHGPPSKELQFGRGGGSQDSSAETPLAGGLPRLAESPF
Procedure: as §1, §2, §3, §4

human GLP-1 receptor = biological target: T3, human GLP-1 receptor (Homo sapiens, UniProt P43220); experiment: HTRF cAMP assay in HEK-293 cells expressing human GLP-1 receptor
T3 construct: expressed in transfected cells; host or cells: PSC-HEK-293
T3 sequence (P43220 24-463): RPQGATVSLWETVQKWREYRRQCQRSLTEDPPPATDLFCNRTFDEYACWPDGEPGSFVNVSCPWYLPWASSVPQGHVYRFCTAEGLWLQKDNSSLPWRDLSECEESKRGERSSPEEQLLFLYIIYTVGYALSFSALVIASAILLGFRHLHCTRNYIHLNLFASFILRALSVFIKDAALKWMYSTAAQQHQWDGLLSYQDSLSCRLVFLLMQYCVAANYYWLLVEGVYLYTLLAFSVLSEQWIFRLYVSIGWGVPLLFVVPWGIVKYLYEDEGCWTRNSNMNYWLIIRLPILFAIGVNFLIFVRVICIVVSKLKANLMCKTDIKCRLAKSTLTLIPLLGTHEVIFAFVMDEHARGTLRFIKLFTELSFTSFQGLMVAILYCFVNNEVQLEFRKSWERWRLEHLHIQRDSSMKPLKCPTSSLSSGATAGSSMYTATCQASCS
Procedure: as §1, §2, §3, §4

[2] = HEK-293 cells, read-out: HTRF cAMP EC50 Human GIPR
[3] = HEK-293 cells, read-out: HTRF cAMP EC50 Human GCGR
[4] = HEK-293 cells, read-out: HTRF cAMP EC50 Human GLP-1R

Row | EC50 (human GIP receptor; [2]) [nM] | EC50 [1, 3] [nM] | EC50 (human GLP-1 receptor; [4]) [nM] | Compound | EC50 (human GIP receptor) [nM] | EC50 [1] [nM] | EC50 (human GLP-1 receptor) [nM]
1 | > 10 | > 10 | 0.0017 | CC[C@H](C)[C@H](NC(=O)[C@H](CC(C)C)NC(=O)[C@H](Cc1c[nH]c2ccccc12)NC(=O)[C@H](CC(C)C)NC(=O)[C@@H](NC(=O)[C@H](Cc1ccccc1)NC(=O)[C@H](CC(C)C)NC(=O)[C@H](CCCNC(=N)N)NC(=O)[C@@H](NC(=O)[C@H](CC(C)C)NC(=O)[C@H](CCCNC(=N)N)NC(=O)[C@H](CCCCN)NC(=O)[C@H](CCC(=O)O)NC(=O)[C@H](CC(C)C)NC(=O)[C@H](CCC(N)=O)NC(=O)[C@H](CCCCN)NC(=O)[C@H](CO)NC(=O)[C@H](CCCCN)NC(=O)[C@H](CC(=O)O)NC(=O)[C@H](CO)NC(=O)[C@@H](NC(=O)[C@H](Cc1ccccc1)NC(=O)[C@@H](NC(=O)CNC(=O)[C@H](CCC(=O)O)NC(=O)CNC(=O)[C@@H](N)Cc1c[nH]cn1)[C@@H](C)O)[C@@H](C)O)C(C)C)[C@@H](C)CC)C(=O)N[C@@H](C)C(=O)NCC(=O)NCC(=O)N[C@@H](Cc1c[nH]cn1)C(=O)N[C@@H](CO)C(=O)N[C@@H](CO)C(=O)NCC(=O)N[C@@H](CCCCN)C(=O)N1CCC[C@H]1C(=O)N1CCC[C@H]1C(=O)N1CCC[C@H]1C(=O)N[C@@H](CCCCN)C(N)=O [Ab P023] (H-HGEGTFTSDKSKQLEKRLVRLFILWLIAGGHSSGKPPPK-NH2; N-terminus assumed) | – | – | –
2 | > 10 | > 10 | 0.0203 | HGEGTFTSDLSKQCEEERVQLFIEWLKATGPSSGKPPPKPGC-NH2 (disulfide 14-42) [Ab P035] | – | – | –
3 | – | – | – | CC[C@H](C)[C@H](NC(=O)[C@H](Cc1ccccc1)NC(=O)[C@H](CC(C)C)NC(=O)[C@H](CCCNC(=N)N)NC(=O)[C@@H](NC(=O)[C@H](C)NC(=O)[C@H](CCC(=O)O)NC(=O)[C@H](CCC(=O)O)NC(=O)[C@H](CCC(=O)O)NC(=O)[C@H](CC(C)C)NC(=O)[C@H](CCC(N)=O)NC(=O)[C@H](CCCCN)NC(=O)[C@H](CO)NC(=O)[C@H](CCCCN)NC(=O)[C@H](CC(=O)O)NC(=O)[C@H](CO)NC(=O)[C@@H](NC(=O)[C@H](Cc1ccccc1)NC(=O)[C@@H](NC(=O)CNC(=O)[C@H](CCC(=O)O)NC(=O)CNC(=O)[C@H](Cc1c[nH]cn1)NC(=O)CN)[C@@H](C)O)[C@@H](C)O)C(C)C)C(=O)N[C@@H](CCC(=O)O)C(=O)N[C@@H](Cc1c[nH]c2ccccc12)C(=O)N[C@@H](CC(C)C)C(=O)N[C@@H](CCCCN)C(=O)N[C@@H](C)C(=O)NCC(=O)NCC(=O)N1CCC[C@H]1C(=O)N[C@@H](CO)C(=O)N[C@@H](CO)C(=O)NCC(=O)N[C@@H](C)C(=O)N1CCC[C@H]1C(=O)N1CCC[C@H]1C(=O)N1CCC[C@H]1C(=O)N[C@@H](CO)C(N)=O [Ab P021] (H-GHGEGTFTSDKSKQLEEEAVRLFIEWLKAGGPSSGAPPPS-NH2) | > 10 | > 10 | 0.0276
4 | ≥ 10 | > 10 | 0.0026 | CC[C@H](C)[C@H](NC(=O)[C@H](CC(C)C)NC(=O)[C@H](Cc1c[nH]c2ccccc12)NC(=O)[C@H](Cc1ccc(O)cc1)NC(=O)[C@@H](NC(=O)[C@H](Cc1ccccc1)NC(=O)[C@H](CC(C)C)NC(=O)[C@H](CCCNC(=N)N)NC(=O)[C@@H](NC(=O)[C@H](CC(C)C)NC(=O)[C@H](CCCNC(=N)N)NC(=O)[C@H](CCCCN)NC(=O)[C@H](CCC(=O)O)NC(=O)[C@H](CC(C)C)NC(=O)[C@H](CCC(N)=O)NC(=O)[C@H](CCCCN)NC(=O)[C@H](CO)NC(=O)[C@H](CCCCN)NC(=O)[C@H](CC(=O)O)NC(=O)[C@H](CO)NC(=O)[C@@H](NC(=O)[C@H](Cc1ccccc1)NC(=O)[C@@H](NC(=O)CNC(=O)[C@H](CCC(=O)O)NC(=O)CNC(=O)[C@@H](N)Cc1c[nH]cn1)[C@@H](C)O)[C@@H](C)O)C(C)C)[C@@H](C)CC)C(=O)N[C@@H](C)C(=O)NCC(=O)NCC(=O)N[C@@H](Cc1c[nH]cn1)C(=O)N[C@@H](CO)C(=O)N[C@@H](CO)C(=O)NCC(=O)N[C@@H](CCCCN)C(=O)N1CCC[C@H]1C(=O)N1CCC[C@H]1C(=O)N1CCC[C@H]1C(=O)N[C@@H](CCCCN)C(N)=O [Ab P024] (H-HGEGTFTSDKSKQLEKRLVRLFIYWLIAGGHSSGKPPPK-NH2; N-terminus assumed) | – | – | –
